Results as given in US8959984B2, “Proteome-wide quantification of small molecule binding to cellular target proteins” (priority 2007, dated 2015).
Like-named read-outs stand apart in the source and are kept apart here.

Tests used:
Sepiapterin reductase = Sepiapterin reductase (Homo sapiens, UniProt P35270); assay: binding to immobilized V16742 (IVA1/IVA2, HeLa lysate, MS)
p38a = molecular target: T1, p38a (Homo sapiens, UniProt Q16539); assay: as above; conditions: p38a (IPI00221141.2)
T1 construct: endogenous in cells; host or cells: HeLa S3
T1 sequence (Q16539 whole entry): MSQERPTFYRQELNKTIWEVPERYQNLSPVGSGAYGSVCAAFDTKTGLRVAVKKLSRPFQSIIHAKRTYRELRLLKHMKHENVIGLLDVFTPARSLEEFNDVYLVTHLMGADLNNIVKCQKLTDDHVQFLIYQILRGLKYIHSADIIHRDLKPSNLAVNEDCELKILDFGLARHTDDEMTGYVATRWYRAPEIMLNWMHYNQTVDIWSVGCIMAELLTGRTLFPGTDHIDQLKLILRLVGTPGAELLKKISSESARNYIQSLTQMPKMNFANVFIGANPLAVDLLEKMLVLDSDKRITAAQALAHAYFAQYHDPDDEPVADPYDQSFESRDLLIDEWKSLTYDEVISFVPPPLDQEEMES

CCNK (IPI00783214) = assay: binding to VI16742 beads (HeLa lysate, SILAC MS); parameters: species or system human
Text: (§1) In an alternative implementation of the chemical proteomic approach according to the invention, the broadly-selective pyrido[2,3-d]pyrimidine-based kinase inhibitor VI16742 has been used for affinity capture (FIG. 10a). […] As shown by gene ontology analysis, the corresponding molecular functions were highly over-represented in proteins specifically retained by the inhibitor resin (FIG. 10b).

PARVA (IPI00018963) = assay: binding to VI16742 beads (HeLa lysate, SILAC MS); parameters: species or system human
Text: as §1

RSU1 (IPI00847168) = assay: binding to VI16742 beads (HeLa lysate, SILAC MS); parameters: species or system human
Text: as §1

BLMH = molecular target: T2, BLMH (Homo sapiens, UniProt Q13867); assay: gefitinib competition against AX14596 beads (HeLa lysate, SILAC MS); assay type: binding
T2 construct: endogenous in cells; host or cells: HeLa S3
T2 sequence (Q13867 1-455): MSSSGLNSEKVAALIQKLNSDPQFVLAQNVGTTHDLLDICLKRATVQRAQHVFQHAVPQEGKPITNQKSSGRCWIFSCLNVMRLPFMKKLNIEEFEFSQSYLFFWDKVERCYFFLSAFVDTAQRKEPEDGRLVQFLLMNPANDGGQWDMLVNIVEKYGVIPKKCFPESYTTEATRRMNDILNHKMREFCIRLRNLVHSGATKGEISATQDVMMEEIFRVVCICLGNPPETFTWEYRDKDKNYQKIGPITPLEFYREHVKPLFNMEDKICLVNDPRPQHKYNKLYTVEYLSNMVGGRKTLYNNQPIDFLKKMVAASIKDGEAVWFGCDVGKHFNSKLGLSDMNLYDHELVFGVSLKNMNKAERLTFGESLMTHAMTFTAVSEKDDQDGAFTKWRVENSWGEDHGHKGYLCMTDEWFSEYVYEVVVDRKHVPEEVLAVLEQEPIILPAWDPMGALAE

SNRPE = SNRPE (Homo sapiens, UniProt P62304)
Sequence of SNRPE (P62304 whole entry): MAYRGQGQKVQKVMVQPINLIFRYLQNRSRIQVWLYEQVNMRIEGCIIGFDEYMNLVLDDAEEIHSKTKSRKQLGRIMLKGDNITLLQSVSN

NUDT12 = NUDT12 (Homo sapiens, UniProt Q9BQG2)
Sequence of NUDT12 (Q9BQG2 whole entry): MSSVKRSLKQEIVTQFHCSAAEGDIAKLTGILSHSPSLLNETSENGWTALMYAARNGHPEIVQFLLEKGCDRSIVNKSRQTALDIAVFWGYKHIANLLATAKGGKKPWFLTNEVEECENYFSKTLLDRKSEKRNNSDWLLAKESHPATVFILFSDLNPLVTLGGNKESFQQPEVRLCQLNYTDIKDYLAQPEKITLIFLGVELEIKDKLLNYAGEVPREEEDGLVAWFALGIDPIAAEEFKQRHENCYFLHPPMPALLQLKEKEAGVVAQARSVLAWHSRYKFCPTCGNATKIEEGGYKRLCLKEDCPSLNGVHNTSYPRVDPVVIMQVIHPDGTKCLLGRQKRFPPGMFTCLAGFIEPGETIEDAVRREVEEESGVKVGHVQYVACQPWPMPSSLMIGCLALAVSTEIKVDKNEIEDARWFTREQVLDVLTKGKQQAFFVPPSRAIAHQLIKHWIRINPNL

CaMK2g (CAMK2G) = CaMK2g (CAMK2G) (Homo sapiens, UniProt Q13555)
Sequence of CaMK2g (CAMK2G) (Q13555 whole entry): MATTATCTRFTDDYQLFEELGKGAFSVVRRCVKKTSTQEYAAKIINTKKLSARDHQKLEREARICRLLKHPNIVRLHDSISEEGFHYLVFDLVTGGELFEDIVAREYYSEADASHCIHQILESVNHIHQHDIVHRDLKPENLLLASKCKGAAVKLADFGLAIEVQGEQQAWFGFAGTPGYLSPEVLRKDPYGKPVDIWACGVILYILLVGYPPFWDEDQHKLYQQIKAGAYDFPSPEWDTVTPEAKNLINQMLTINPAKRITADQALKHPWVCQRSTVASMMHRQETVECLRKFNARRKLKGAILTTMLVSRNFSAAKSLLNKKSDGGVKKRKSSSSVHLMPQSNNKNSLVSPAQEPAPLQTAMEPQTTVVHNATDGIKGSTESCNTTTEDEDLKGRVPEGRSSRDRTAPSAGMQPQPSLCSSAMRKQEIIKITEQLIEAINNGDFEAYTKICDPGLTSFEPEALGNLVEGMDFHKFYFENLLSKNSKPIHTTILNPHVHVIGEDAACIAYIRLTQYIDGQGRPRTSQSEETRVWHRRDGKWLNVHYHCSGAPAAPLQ

EphB2 = molecular target: T3, EphB2 (Homo sapiens, UniProt P29323)
T3 sequence (P29323 19-1055): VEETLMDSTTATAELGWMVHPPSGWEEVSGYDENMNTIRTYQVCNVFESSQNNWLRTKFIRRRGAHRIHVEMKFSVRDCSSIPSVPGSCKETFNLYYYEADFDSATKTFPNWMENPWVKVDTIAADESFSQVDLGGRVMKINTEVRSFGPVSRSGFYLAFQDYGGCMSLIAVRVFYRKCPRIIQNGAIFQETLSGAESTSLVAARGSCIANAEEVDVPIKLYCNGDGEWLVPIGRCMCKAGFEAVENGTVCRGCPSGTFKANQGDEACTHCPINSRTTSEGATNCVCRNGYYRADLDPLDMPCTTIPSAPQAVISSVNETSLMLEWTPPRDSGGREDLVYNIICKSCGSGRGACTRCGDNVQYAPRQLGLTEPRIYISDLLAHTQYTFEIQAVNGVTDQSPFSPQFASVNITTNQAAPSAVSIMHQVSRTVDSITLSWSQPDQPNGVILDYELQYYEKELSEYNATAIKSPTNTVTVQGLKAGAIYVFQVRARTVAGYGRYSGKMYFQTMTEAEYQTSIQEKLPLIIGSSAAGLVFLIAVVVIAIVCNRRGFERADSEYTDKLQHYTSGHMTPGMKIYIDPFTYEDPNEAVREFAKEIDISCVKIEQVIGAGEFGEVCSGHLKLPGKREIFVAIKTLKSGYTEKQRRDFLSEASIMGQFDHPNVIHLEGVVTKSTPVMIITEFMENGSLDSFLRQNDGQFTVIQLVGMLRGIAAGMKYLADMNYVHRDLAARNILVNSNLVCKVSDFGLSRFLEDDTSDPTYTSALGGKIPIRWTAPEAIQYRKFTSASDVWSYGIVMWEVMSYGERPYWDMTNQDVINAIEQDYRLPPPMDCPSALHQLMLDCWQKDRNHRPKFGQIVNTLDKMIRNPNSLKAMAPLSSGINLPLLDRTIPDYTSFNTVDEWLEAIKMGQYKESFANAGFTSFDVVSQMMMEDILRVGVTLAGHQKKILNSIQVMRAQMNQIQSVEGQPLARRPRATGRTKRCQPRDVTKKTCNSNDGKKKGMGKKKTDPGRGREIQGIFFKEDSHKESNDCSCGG

[1] = control beads vs first incubation

Sequence of Sepiapterin reductase (P35270 whole entry): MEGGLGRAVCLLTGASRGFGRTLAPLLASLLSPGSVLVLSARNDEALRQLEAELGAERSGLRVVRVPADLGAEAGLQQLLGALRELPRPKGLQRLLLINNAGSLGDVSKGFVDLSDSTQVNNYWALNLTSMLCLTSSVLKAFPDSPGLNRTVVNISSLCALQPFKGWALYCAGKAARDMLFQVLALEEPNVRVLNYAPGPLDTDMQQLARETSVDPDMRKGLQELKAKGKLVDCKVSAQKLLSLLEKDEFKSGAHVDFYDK

In the case of `CC(C)n1c(=O)ccc2cnc(Nc3ccc(OCCN)cc3)nc21` [V16742], the Kd (Sepiapterin reductase) is reported as 58.6 µM, the Kd (Sepiapterin reductase; Kd Avg, Sepiapterin reductase, average of two experiments) is reported as 93 µM and the Kd (Sepiapterin reductase; Kd, Sepiapterin reductase, Experiment 2) is reported as 127 µM. The Kd (Sepiapterin reductase; Kd, Sepiapterin reductase, immobilized V16742) was 93 µM, the “Percent bound at various 16742 conc” value (Sepiapterin reductase; Sepiapterin reductase, Experiment 1, 1.87 μM 16742) was 2.16% and the “Percent bound at various 16742 conc” value (Sepiapterin reductase; Sepiapterin reductase, Experiment 1, 8.74 μM 16742) was 2.59%. The “Percent bound at various 16742 conc” value (Sepiapterin reductase; Sepiapterin reductase, Experiment 1, 52 μM 16742) was 51.84%, the “Percent bound at various 16742 conc” value (Sepiapterin reductase; Sepiapterin reductase, Experiment 2, 1.87 μM 16742) was 1.04% and the “Percent bound at various 16742 conc” value (Sepiapterin reductase; Sepiapterin reductase, Experiment 2, 8.74 μM 16742) was 1.52%. The “Percent bound at various 16742 conc” value (Sepiapterin reductase; Sepiapterin reductase, Experiment 2, 52 μM 16742) was 30.43%, the “Percent bound at various 16742 conc” value (p38a; Experiment 1, 1.87 μM 16742) was 4.98% and the “Percent bound at various 16742 conc” value (p38a; Experiment 1, 8.74 μM 16742) was 6.72%. The “Percent bound at various 16742 conc” value (p38a; Experiment 1, 52 μM 16742) was 49.78%, the Kd (p38a; Experiment 1, read-out: Kd) was 58.3 µM and the “Percent bound at various 16742 conc” value (p38a; Experiment 2, 1.87 μM 16742) was 3.02%. For the same compound, the “Percent bound at various 16742 conc” value (p38a; Experiment 2, 8.74 μM 16742) was 1.43%, the “Percent bound at various 16742 conc” value (p38a; Experiment 2, 52 μM 16742) was 24.52% and the Kd (p38a; Experiment 2, read-out: Kd) was 167 µM. The Kd (p38a; average of two experiments, read-out: Kd Avg) was 113 µM, the “r (3 MG/1 MG LYSATE)” value (CCNK (IPI00783214); 3 mg vs 1 mg lysate) was 3.84 and the “r (5 h/2.5 h INC. TIME)” value (CCNK (IPI00783214); 5 h vs 2.5 h incubation time) was 1.27. For the same compound, the “rAVERAGE (CTRL/1 INC)” value (CCNK (IPI00783214); [1]) was 0.12, the Ki (CCNK (IPI00783214); immobilized VI16742) was 120 µM and the “rAVERAGE (2 INC/1 INC)” value (CCNK (IPI00783214); second vs first incubation) was 0.70. For the same compound, the “rAVERAGE (CTRL/1 INC)” value (PARVA (IPI00018963); [1]) was 0.06, the Ki (PARVA (IPI00018963); immobilized VI16742) was 155 µM and the “rAVERAGE (2 INC/1 INC)” value (PARVA (IPI00018963); second vs first incubation) was 0.75. The “r (5 h/2.5 h INC. TIME)” value (RSU1 (IPI00847168); 5 h vs 2.5 h incubation time) was 1.34, the “rAVERAGE (CTRL/1 INC)” value (RSU1 (IPI00847168); [1]) was 0.07 and the Ki (RSU1 (IPI00847168); immobilized VI16742) was 216 µM. The “rAVERAGE (2 INC/1 INC)” value (RSU1 (IPI00847168); second vs first incubation) was 0.81.

With `COc1cc2ncnc(Nc3ccc(F)c(Cl)c3)c2cc1OCCCN1CCOCC1` [gefitinib] the IC50 (BLMH) was 0.223 µM, the “rAVERAGE (10 nM/0 nM Gef.)” value (BLMH) was 0.82 and the “rAVERAGE (100 nM/0 nM Gef.)” value (BLMH) was 0.53. For the same compound, the “rAVERAGE (1000 nM/0 nM Gef.)” value (BLMH) was 0.43, the “rAVERAGE (10000 nM/0 nM Gef.)” value (BLMH) was 0.11 and the Ki (BLMH; read-out: Ki (Gef)) was 0.0779 µM. For the same compound, the “rAVERAGE (10 nM/0 nM Gef.)” value (SNRPE) was 0.70, the “rAVERAGE (100 nM/0 nM Gef.)” value (SNRPE) was 1.11 and the “rAVERAGE (1000 nM/0 nM Gef.)” value (SNRPE) was 0.74. The “rAVERAGE (10000 nM/0 nM Gef.)” value (SNRPE) was 0.93, the “rAVERAGE (10 nM/0 nM Gef.)” value (NUDT12) was 1.04 and the “rAVERAGE (100 nM/0 nM Gef.)” value (NUDT12) was 0.93. For the same compound, the “rAVERAGE (1000 nM/0 nM Gef.)” value (NUDT12) was 0.92, the “rAVERAGE (10000 nM/0 nM Gef.)” value (NUDT12) was 0.09 and the “rAVERAGE (10 nM/0 nM Gef.)” value (CaMK2g (CAMK2G)) was 0.95. The “rAVERAGE (100 nM/0 nM Gef.)” value (CaMK2g (CAMK2G)) was 1.08, the “rAVERAGE (1000 nM/0 nM Gef.)” value (CaMK2g (CAMK2G)) was 1.01 and the “rAVERAGE (10000 nM/0 nM Gef.)” value (CaMK2g (CAMK2G)) was 0.92. For the same compound, the “rAVERAGE (10 nM/0 nM Gef.)” value (EphB2) was 0.88, the “rAVERAGE (100 nM/0 nM Gef.)” value (EphB2) was 0.90 and the “rAVERAGE (1000 nM/0 nM Gef.)” value (EphB2) was 0.85. For the same compound, the “rAVERAGE (10000 nM/0 nM Gef.)” value (EphB2) was 0.33.
